Results published in the CheMixHub ionic liquid set.

Assay: xn = mol fraction of the nth substance listed

O=C(O)CC(O)(CC(=O)O)C(=O)O + C[N+](C)(C)Cc1ccccc1.[Cl-]
101 kPa, x2 = 0.5
Details	electrical conductivity [S/m]	viscosity [mPa·s]
293.15 K	3.3e-05	–
298.09 K	3.9e-05	–
303.11 K	0.000162	–
308.2 K	0.000519	–
312.91 K	–	237000
313.21 K	0.00111	–
318.06 K	0.001906	–
327.86 K	–	52100
328.14 K	0.005576	–
333.12 K	0.009475	–

CS(=O)(=O)[O-].C[N+](C)(CCO)CCO + CCCO
viscosity [mPa·s], 101 kPa
Details	x1 = 0.0999	x1 = 0.1996	x1 = 0.2999	x1 = 0.3987	x1 = 0.498	x1 = 0.5975	x1 = 0.6972	x1 = 0.7982	x1 = 0.8978	x1 = 1
298.15 K	4.97	11.64	25.5	50.9	97.5	196	337	576	960	1495
303.15 K	4.34	9.88	20.9	40.6	75.5	149	248	414	676	1021
308.15 K	3.8	8.45	17.4	32.9	59.6	114.8	187	304	484	716
313.15 K	3.36	7.29	14.66	27	47.7	79.8	142.8	228	355	513
318.15 K	2.98	6.35	12.49	22.5	38.8	63.7	111.4	174	267	378
323.15 K	2.66	5.56	10.92	18.9	32	51.5	79.8	135.8	203	282

N#C[C-](C#N)C#N.OCCC[n+]1ccccc1 + c1ccsc1
viscosity [mPa·s], 101 kPa
Details	x1 = 0.4088	x1 = 0.505	x1 = 0.5955	x1 = 0.7045	x1 = 0.8231	x1 = 0.9377	x1 = 1
293.15 K	17.5	31.5	48.6	69.3	94.1	115	126
298.15 K	14.4	25.1	36.6	52	68.9	85.4	92.5
303.15 K	12	20.4	29.3	40	52.7	64.4	69.5
308.15 K	10.2	16.9	24.1	32.4	42.1	49.9	53.8
313.15 K	8.69	14.3	19.8	26.4	33.5	39.5	42.5
318.15 K	7.53	12.2	16.9	22.1	27.4	32.2	34.6
323.15 K	6.58	10.5	14.2	18.3	22.4	26.2	28.1
328.15 K	5.8	9.03	12	15.4	18.8	21.8	23.4
333.15 K	5.15	7.96	10.5	13.3	16.1	18.5	19.8
338.15 K	4.62	7.12	9.24	11.5	13.8	15.9	16.9
343.15 K	4.16	6.33	8.11	10	11.9	13.6	14.5
348.15 K	3.96	5.89	7.4	9.06	10.7	12.3	13.1

O=C(O)CC(O)(CC(=O)O)C(=O)O + CCCC[N+](CCCC)(CCCC)CCCC.[Cl-] + O
100 kPa, x2 = 0.1428, x1 = 0.1428
Details	electrical conductivity [S/m]	viscosity [mPa·s]
293.15 K	0.0384	620
303.15 K	0.0639	380
313.15 K	0.103	245
323.15 K	0.161	161
333.15 K	0.245	108

CCCC[N+]1(C)CCCC1.O=S(=O)([O-])C(F)(F)F + O
100 kPa
Details	electrical conductivity [S/m]	viscosity [mPa·s]
288.15 K, x2 = 0.0597	0.147	241.7
288.15 K, x2 = 0.3197	0.297	98.4
288.15 K, x2 = 0.3766	0.344	81.5
288.15 K, x2 = 0.7673	1.04	18.66
293.15 K, x2 = 0.3197	0.368	76.9
293.15 K, x2 = 0.8612	1.72	8.54
298.15 K, x2 = 0.0597	0.238	138.8
298.15 K, x2 = 0.3766	0.521	51.2
298.15 K, x2 = 0.6794	1.15	18.33
298.15 K, x2 = 0.7673	1.51	12.54
298.15 K, x2 = 0.95	2.4	2.88
303.15 K, x2 = 0.3766	0.623	41.65
303.15 K, x2 = 0.95	2.77	2.49
308.15 K, x2 = 0.1203	0.415	72.5
308.15 K, x2 = 0.3766	0.736	34.31
313.15 K, x2 = 0.1956	0.581	47.98
313.15 K, x2 = 0.5819	1.42	15.25
318.15 K, x2 = 0.1203	0.586	48.5
318.15 K, x2 = 0.3197	0.89	28.23
323.15 K, x2 = 0.0597	0.612	46.94
323.15 K, x2 = 0.1956	0.795	33.42
323.15 K, x2 = 0.5819	1.87	11.25
323.15 K, x2 = 0.6794	2.43	8.12
323.15 K, x2 = 0.95	4.45	1.52
328.15 K, x2 = 0.3766	1.31	17.72
333.15 K, x2 = 0.5819	2.41	8.59

CCCCCO + CCCCCC[n+]1ccn(C)c1.[Cl-]
Details	viscosity [mPa·s]
303.15 K, 101 kPa, x1 = 1	3.03

O=S(=O)([N-]S(=O)(=O)C(F)(F)F)C(F)(F)F.[Li+] + CCCC[N+]1(C)CCCC1.O=S(=O)([N-]S(=O)(=O)C(F)(F)F)C(F)(F)F
100 kPa, x1 = 0.24
Details	electrical conductivity [S/m]
277.9 K	0.007
283.4 K	0.016
298 K	0.062
346.4 K	0.429

CCCC[n+]1ccn(C)c1.C[C@H](N)C(=O)[O-] + O
viscosity [mPa·s], 100.3 kPa
Details	288.15 K	293.15 K	298.15 K	303.15 K	308.15 K	313.15 K	318.15 K	323.15 K	328.15 K
x1 = 0.0002936	1.156	1.017	0.9	0.81	0.726	0.661	0.604	0.554	0.511
x1 = 0.0003927	1.162	1.022	0.907	0.813	0.732	0.664	0.606	0.557	0.513
x1 = 0.0004989	1.167	1.027	0.911	0.817	0.735	0.666	0.608	0.559	0.515
x1 = 0.0009775	1.203	1.057	0.937	0.838	0.755	0.685	0.626	0.573	0.529
x1 = 0.002927	1.361	1.197	1.057	0.939	0.842	0.759	0.688	0.629	–
x1 = 0.004981	1.513	1.326	1.163	1.028	0.917	0.827	0.749	0.685	–
x1 = 0.007048	1.658	1.446	1.273	1.119	0.997	0.894	0.806	0.736	–
x1 = 0.009016	1.821	1.575	1.368	1.209	1.07	0.959	0.867	0.781	–
x1 = 0.01103	1.957	1.697	1.477	1.301	1.147	1.027	0.929	0.832	–
x1 = 0.01317	2.101	1.819	1.58	1.38	1.225	1.089	0.986	0.888	–
x1 = 0.01511	2.246	1.941	1.677	1.469	1.292	1.156	1.037	0.932	–
x1 = 0.01781	2.459	2.107	1.825	1.598	1.393	1.253	1.115	0.999	–

OCCO + CCCC[n+]1ccn(C)c1.O=S(=O)([O-])C(F)(F)F
Details	viscosity [mPa·s]
303.15 K, 100 kPa, x2 = 0	13.49

CC[N+]1(C)CCCC1.[Br-] + OC[C@H]1O[C@@H]2O[C@H]3[C@H](O)[C@@H](O)[C@@H](O[C@H]4[C@H](O)[C@@H](O)[C@@H](O[C@H]5[C@H](O)[C@@H](O)[C@@H](O[C@H]6[C@H](O)[C@@H](O)[C@@H](O[C@H]7[C@H](O)[C@@H](O)[C@@H](O[C@H]8[C@H](O)[C@@H](O)[C@@H](O[C@H]1[C@H](O)[C@H]2O)O[C@@H]8CO)O[C@@H]7CO)O[C@@H]6CO)O[C@@H]5CO)O[C@@H]4CO)O[C@@H]3CO + O
298.15 K, 100 kPa
Details	viscosity [mPa·s]
x2 = 1.587e-05, x1 = 0.001261	1.38
x2 = 1.587e-05, x1 = 0.001531	1.4
x2 = 1.588e-05, x1 = 0.0009911	1.37
x2 = 4.77e-05, x1 = 0.001534	1.45
x2 = 4.771e-05, x1 = 0.001264	1.42
x2 = 4.772e-05, x1 = 0.0009931	1.39
